Data on 13 molecules can be found in patent US12662489B2 (Sitryx Therapeutics Limited, priority 2023, dated 2026).

Assay [1] has as its target T1, MTHFD1 recombinant human enzyme (Homo sapiens, UniProt P11586).
T1 sequence (P11586 2-291 limits assumed): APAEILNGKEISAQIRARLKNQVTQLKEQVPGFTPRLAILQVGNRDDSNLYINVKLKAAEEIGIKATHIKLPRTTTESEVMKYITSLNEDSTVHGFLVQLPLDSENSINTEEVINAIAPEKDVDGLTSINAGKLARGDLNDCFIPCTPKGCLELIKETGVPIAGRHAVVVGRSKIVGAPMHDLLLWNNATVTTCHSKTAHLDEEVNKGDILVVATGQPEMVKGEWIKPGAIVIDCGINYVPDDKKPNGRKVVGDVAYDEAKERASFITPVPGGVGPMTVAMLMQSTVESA
As to the kind of experiment: MTHFD1 inhibition assay (NAD(P)H-Glo luminescence). The following applies: MTHFD1 IC50, recombinant human enzyme 200 nM, NADP, band.

Assay [2] has as its target T2, MTHFD2 recombinant human enzyme (Homo sapiens, UniProt P13995).
T2 sequence (P13995 36-350): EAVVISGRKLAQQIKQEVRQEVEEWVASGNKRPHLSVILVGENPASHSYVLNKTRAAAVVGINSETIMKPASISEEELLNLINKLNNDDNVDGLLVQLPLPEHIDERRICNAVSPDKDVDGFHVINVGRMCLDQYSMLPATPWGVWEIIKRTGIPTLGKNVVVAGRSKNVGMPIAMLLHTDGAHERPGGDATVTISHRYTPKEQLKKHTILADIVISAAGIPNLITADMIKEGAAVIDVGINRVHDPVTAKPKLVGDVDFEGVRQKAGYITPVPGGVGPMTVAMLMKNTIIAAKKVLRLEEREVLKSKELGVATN
Description: MTHFD2 inhibition assay (NAD(P)H-Glo luminescence). The following applies: for MTHFD1/MTHFD2 IC50 ratio: selectivity of MTHFD2 inhibition over MTHFD1, band.

For the next assay, the system named is human CD4+ T cells. As to the kind of experiment: Human CD4+ T-cell proliferation assay (CFSE, CD3/28 beads). As to conditions: read-out: Proliferation IC50.

Description for human CD4+ T cells: Cells were incubated at room temperature for 8 minutes in a rotator in the dark. 13 mL cRPMI was added to each tube and cells were centrifuged at 500×g for 4 minutes at room temperature before pellets were resuspended in 10 mL cRPMI. Cells were counted using the Auto2000 Cellometer and AO/PI viability stain and concentration adjusted to 0.6×10^6 cells/mL in cRPMI. […] Control wells were included for flow cytometry and edge wells were filled with 200 μL 1×dPBS. Cells were incubated at 37° C., 5% CO2 for 2 days before compound treatment. […] Cells were incubated at 37° C., 5% CO2 for a further 2 days prior to flow staining and supernatant harvest.
On the final day plates were centrifuged at 500×g for 4 minutes at room temperature. 125 μL of supernatants were transferred to a V bottom 96 well polystyrene plate and stored at −80° C. Plates were gently vortexed to disrupt the cell pellets before 125 μL 1×PBS was added to each well. Plates were centrifuged at 500×g for 4 minutes at room temperature and supernatants removed from the plates by aspirating. Plates were gently vortexed and 30 μL of live/dead stain (Invitrogen, L34975) in 1×dPBS was added and incubated for 15 minutes in the dark at 4° C. […] 100 μL of flow cytometry buffer was added and plates were centrifuged at 500×g for 4 minutes before supernatants were aspirated from the plates. Wells were resuspended in 200 μL flow cytometry buffer and plates stored at 4° C. before being run on the flow cytometer.
Data was analysed using FlowJo and the compensation matrix applied to all samples. The gates were set using unstained and unstimulated samples.

For the molecule `CCOc1cc(C(=O)N2CCc3c(c(=O)oc4c(C)c(N5CCN(C)[C@@H](COC)C5)cc(C)c34)C2)c(F)cc1C(=O)NS(=O)(=O)N1C2CCC1COC2` [Example 221, N-((3-oxa-8-azabicyclo[3.2.1]octan-8-yl)sulfonyl)-2-ethoxy-5-fluoro-4-(8-((R)-3-(methoxymethyl)-4-methylpiperazin-1-yl)-7,10-dimethyl-5-oxo-1,3,4,5-tetrahydro-2H-chromeno[3,4-c]pyridine-3-carbonyl)benzamide], the IC50 in assay [1] lay in the range of 100 to 1000 nM; in assay [2], 10 to 100 nM; in the assay with human CD4+ T cells, 30 to 100 nM. In addition, in assay [2], the “MTHFD1/MTHFD2 IC50 ratio” value is listed as “H (>9.0 to 30)”.
For `COC[C@H]1CN(c2cc(C)c3c4c(c(=O)oc3c2C)CN(C(=O)c2cc(N(C)C)c(C(=O)NS(=O)(=O)N3C5CCC3CC5)cc2Cl)CC4)CCN1C` [Example 193, (R)-N-((7-azabicyclo[2.2.1]heptan-7-yl)sulfonyl)-5-chloro-2-(dimethylamino)-4-(8-(3-(methoxymethyl)-4-methylpiperazin-1-yl)-7,10-dimethyl-5-oxo-1,3,4,5-tetrahydro-2H-chromeno[3,4-c]pyridine-3-carbonyl)benzamide], in that order: 1000 to 5000 nM, 10 to 100 nM, 30 to 100 nM and “J (>30)”.
Taken in the same sequence, the figures for `COC[C@H]1CN(c2cc(C)c3c4c(c(=O)oc3c2C)CN(C(=O)c2cc(N(C)C)c(C(=O)NS(=O)(=O)N3CC5CC5C3)cc2F)CC4)CCN1C` (stereo partly drawn) [Example 315, N-((3-azabicyclo[3.1.0]hexan-3-yl)sulfonyl)-2-(dimethylamino)-5-fluoro-4-(8-((R)-3-(methoxymethyl)-4-methylpiperazin-1-yl)-7,10-dimethyl-5-oxo-1,3,4,5-tetrahydro-2H-chromeno[3,4-c]pyridine-3-carbonyl)benzamide] were 100 to 1000 nM, 1 to 10 nM, 1 to 10 nM and “J (>30)”.
Consider `COC[C@H]1CN(c2cc(C)c3c4c(c(=O)oc3c2C)CN(C(=O)c2cc(N(C)C)c(C(=O)NS(=O)(=O)N(C3CC3)C3CC3)cc2F)CC4)CCN1C` [Example 276, (R)-N-(N,N-dicyclopropylsulfamoyl)-2-(dimethylamino)-5-fluoro-4-(8-(3-(methoxymethyl)-4-methylpiperazin-1-yl)-7,10-dimethyl-5-oxo-1,3,4,5-tetrahydro-2H-chromeno[3,4-c]pyridine-3-carbonyl)benzamide], for which the values for the IC50 (in assay [1]; in assay [2]; with human CD4+ T cells) were 100 to 1000 nM, 10 to 100 nM and 1 to 10 nM, respectively. Besides, the “MTHFD1/MTHFD2 IC50 ratio” value in assay [2] is “H (>9.0 to 30)”.
Taken in the same sequence, the figures for `COC[C@H]1CN(c2cc(C)c3c4c(c(=O)oc3c2C)CN(C(=O)c2ccc(C(=O)NS(=O)(=O)N3CCCC3)c(Cl)c2F)CC4)CCN1C` [Example 178, (R)-2-chloro-3-fluoro-4-(8-(3-(methoxymethyl)-4-methylpiperazin-1-yl)-7,10-dimethyl-5-oxo-1,3,4,5-tetrahydro-2H-chromeno[3,4-c]pyridine-3-carbonyl)-N-(pyrrolidin-1-ylsulfonyl)benzamide] were 100 to 1000 nM, 10 to 100 nM, 100 to 1000 nM and “J (>30)”.
Taken in the same sequence, the figures for `CCOc1cc(C(=O)N2CCc3c(c(=O)oc4c(C)c(N5CCN(C)[C@@H](COC)C5)cc(C)c34)C2)c(F)cc1C(=O)NS(=O)(=O)N1CCC(C)(C)C1` [Example 217, (R)-N-((3,3-dimethylpyrrolidin-1-yl)sulfonyl)-2-ethoxy-5-fluoro-4-(8-(3-(methoxymethyl)-4-methylpiperazin-1-yl)-7,10-dimethyl-5-oxo-1,3,4,5-tetrahydro-2H-chromeno[3,4-c]pyridine-3-carbonyl)benzamide] were 100 to 1000 nM, 10 to 100 nM, 10 to 30 nM and “G (^ 3 to 9.0)”.
With `COC[C@H]1CN(c2cc(Cl)c3c4c(c(=O)oc3c2C)CN(C(=O)c2cc(N(C)C)c(C(=O)NS(=O)(=O)N3C5CCC3CC5)cc2F)CC4)CCN1C` [Example 316, (R)-N-((7-azabicyclo[2.2.1]heptan-7-yl)sulfonyl)-4-(10-chloro-8-(3-(methoxymethyl)-4-methylpiperazin-1-yl)-7-methyl-5-oxo-1,3,4,5-tetrahydro-2H-chromeno[3,4-c]pyridine-3-carbonyl)-2-(dimethylamino)-5-fluorobenzamide], the IC50 in assay [1] was 1000 to 5000 nM; in assay [2], 10 to 100 nM; in the assay on human CD4+ T cells it was 30 to 100 nM. Besides, the “MTHFD1/MTHFD2 IC50 ratio” value in assay [2] is “J (>30)”.
Taken in the same sequence, the figures for `CCOc1cc(C(=O)N2CCc3c(c(=O)oc4c(C)c(N5CCN(C)[C@@H](COC)C5)cc(C)c34)C2)c(F)cc1C(=O)NS(=O)(=O)N1CC2CC2C1` (stereo partly drawn) [Example 219, N-((3-azabicyclo[3.1.0]hexan-3-yl)sulfonyl)-2-ethoxy-5-fluoro-4-(8-((R)-3-(methoxymethyl)-4-methylpiperazin-1-yl)-7,10-dimethyl-5-oxo-1,3,4,5-tetrahydro-2H-chromeno[3,4-c]pyridine-3-carbonyl)benzamide] were 10 to 100 nM, 10 to 100 nM, 10 to 30 nM and “G (^ 3 to 9.0)”.
For `COC[C@H]1CN(c2cc(C)c3c4c(c(=O)oc3c2C)CN(C(=O)c2cc(OC3CC3)c(C(=O)NS(=O)(=O)N3C5CCC3CC5)cc2F)CC4)CCN1C` [Example 331, (R)-N-((7-azabicyclo[2.2.1]heptan-7-yl)sulfonyl)-2-cyclopropoxy-5-fluoro-4-(8-(3-(methoxymethyl)-4-methylpiperazin-1-yl)-7,10-dimethyl-5-oxo-1,3,4,5-tetrahydro-2H-chromeno[3,4-c]pyridine-3-carbonyl)benzamide], in that order: 100 to 1000 nM, 1 to 10 nM, 30 to 100 nM and “J (>30)”.
As to `COC[C@H]1CN(c2cc(C)c3c4c(c(=O)oc3c2C)CN(C(=O)c2ccc(C(=O)NS(=O)(=O)N3CCCC3)c(N3CCCC3)c2F)CC4)CCN1C` [Example 98, (R)-3-fluoro-4-(8-(3-(methoxymethyl)-4-methylpiperazin-1-yl)-7,10-dimethyl-5-oxo-1,3,4,5-tetrahydro-2H-chromeno[3,4-c]pyridine-3-carbonyl)-2-(pyrrolidin-1-yl)-N-(pyrrolidin-1-ylsulfonyl)benzamide], the IC50 in assay [1] lay in the range of 10 to 100 nM; in assay [2] it was 1 to 10 nM; with human CD4+ T cells, 10 to 30 nM. Further, in assay [2], the “MTHFD1/MTHFD2 IC50 ratio” value was “F (<3)”.
Taken in the same sequence, the figures for `[2H]C([2H])([2H])Oc1cc(C(=O)N2CCc3c(c(=O)oc4c(C)c(N5CCN(C)[C@@H](COC)C5)cc(C)c34)C2)c(F)cc1C(=O)NS(=O)(=O)N1C2CCC1CC2` [Example 250, (R)-N-((7-azabicyclo[2.2.1]heptan-7-yl)sulfonyl)-5-fluoro-2-(methoxy-d3)-4-(8-(3-(methoxymethyl)-4-methylpiperazin-1-yl)-7,10-dimethyl-5-oxo-1,3,4,5-tetrahydro-2H-chromeno[3,4-c]pyridine-3-carbonyl)benzamide] were 1000 to 5000 nM, 1 to 10 nM, 30 to 100 nM and “J (>30)”.
Regarding `COC[C@H]1CN(c2cc(C)c3c4c(c(=O)oc3c2C)CN(C(=O)c2ccc(C(=O)NS(=O)(=O)N3CCCC3)cc2)CC4)CCN1C` [Example 195, (R)-4-(8-(3-(methoxymethyl)-4-methylpiperazin-1-yl)-7,10-dimethyl-5-oxo-1,3,4,5-tetrahydro-2H-chromeno[3,4-c]pyridine-3-carbonyl)-N-(pyrrolidin-1-ylsulfonyl)benzamide], the IC50 was in the range of 1000 to 5000 nM in assay [1], 10 to 100 nM in assay [2] and 1000 to 5000 nM in the assay on human CD4+ T cells. In assay [2], the “MTHFD1/MTHFD2 IC50 ratio” value is given as “J (>30)”.
In the case of `COC[C@H]1CN(c2cc(Cl)c3c4c(c(=O)oc3c2C)CN(C(=O)c2cc(N(C)C)c(C(=O)NS(=O)(=O)N3C5CCC3COC5)cc2F)CC4)CCN1C` [Example 322, N-((3-oxa-8-azabicyclo[3.2. 1]octan-8-yl)sulfonyl)-4-(10-chloro-8-((R)-3-(methoxymethyl)-4-methylpiperazin-1-yl)-7-methyl-5-oxo-1,3,4,5-tetrahydro-2H-chromeno[3,4-c]pyridine-3-carbonyl)-2-(dimethylamino)-5-fluorobenzamide], the IC50 in assay [1] was 1000 to 5000 nM; in assay [2], 1 to 10 nM; in the assay with human CD4+ T cells, 30 to 100 nM. The “MTHFD1/MTHFD2 IC50 ratio” value in assay [2] is given as “J (>30)”.
